Test results from patent US4771041A, “Method for combating virus infection” (priority 1976, dated 1988).

How the values were obtained:
[1] = target: type A influenza virion-associated RNA polymerase (Influenza A virus (A/nt/60/1968(H3N2)), UniProt P03432); experiment: Inhibition of type A influenza virion-associated RNA polymerase; assay type: biochemical, Influenza A2 Aichi virus; conditions: mean of two experiments
Protocol: (§1) Polymerases, nucleic acid template nucleoside triphosphates, of which guanosine triphosphate is tritium-labelled, salt and buffer are mixed at 0° C. in a total volume of 125 μl (for herpes DNA polymerase, see F. below). The concentrations of the nucleoside triphosphates UTP (uridine triphosphate), CTP (cytidinetriphosphate), GTP (guanosinetriphosphate) and ATP (adenosinetriphosphate) were generall 400, 400, 400, and 2000 μM, respectively. The test compound is also added in various concentrations to the mixture obtained. A standard mixture without test compound is also prepared using the same amounts of the ingredients. The enzyme reaction, i.e. synthesis of nucleic acid, is started by incubating the mixture at 37° C. For influenza RNA polymerases the temperature is 33° C. The reaction is allowed to proceed for 60 minutes in the assay of influenza and Micrococcus polymerases. For E.coli DNA dependent RNA polymerase the time is 20 min. and for herpes DNA polymerase 30 minutes. The incubation time for calf thymus polymerases is 10 minutes. The incorporation of labelled monomer into trichloroacetic acid insoluble nucleic acid product was measured in the following way. Before and after the incubation period 50 μl are withdrawn from the mixture and applied to filter discs. These are put in 5% trichloroacetic acid solution and washed several times. After drying the discs are measured for radioactivity in a liquid scintillation counter. The difference in radioactivity between samples with and without added compound is used to calculate the inhibition of the polymerase activity. The inhibition is expressed as percentage inhibition using the radioactivity of the standard sample as basis.
A. Inhibition by phosphonoformic acid of type A influenza virion associated RNA polymerase
Influenza A2 Aichi virus was purified according to the method of Pons and Hirst, Virology 34 385 (1968). The assay mixture is described by Bishop, Obijeski and Simpson, J. Virol. 8 66 (1971).

[2] = target: calf thymus DNA dependent RNA polymerase fraction B (DCB) (Bos taurus, UniProt A5PJW8+G3MZY8); experiment: Inhibition of calf thymus DNA dependent RNA polymerase fraction B; assay type: biochemical; conditions: read-out: Inhibition % DCB
Protocol: as §1, with “For E.coli DNA dependent RNA polymerase the time is 20 min. and for herpes DNA polymerase 30 minutes. The incubation time for calf thymus polymerases is 10 minutes.” left out, “Before and after the incubation period 50 μl are withdrawn from the mixture and applied to filter discs. These are put in 5% trichloroacetic acid solution and washed several times.” left out, “basis. […]” for “basis.”

[3] = target: T1, reverse transcriptase from VV (Maedi visna virus, UniProt P03370); experiment: Cell-free reverse transcriptase inhibition, VV; assay type: biochemical; conditions: template/primer (rA)n.(dT)10, read-out: Percent inhibition
T1 construct: Reverse transcriptase from various retroviruses have been tested in cell-free assays; made in house
Protocol: (§2) Reverse transcriptase from various retroviruses have been tested in cell-free assays for inhibition by phosphonoformic acid and phosphonoacetic acid. The assay conditions have been described by Collaborative Research, Inc, 1365 Main Street, Waltham, Mass., USA "Assay kit for mammalian viral reverse transcriptase". BLV and VV were prepared in this laboratory and all other viruses and viral enzyme were obtained from Dr. K Nilsson, Department of Pathology, University of Uppsala and from Boehringer Mannheim, Germany. Phosphonoformic acid (PFA) and phosphonoacetic acid (PAA) were added at pH 7.2 to the reaction mixtures at the start of the reaction.
(§3) Rauscher murine leukemia virus; RMuLV, visna virus; VV, avian myeloblastosis virus; AMV, bovine leukemia virus; BLV, baboon endogenous virus; BaEV, simian sarcoma virus; SSV.

[4] = target: T2, reverse transcriptase from BaEV (Baboon endogenous virus, UniProt P10272); experiment: Cell-free reverse transcriptase inhibition, BaEV; assay type: biochemical; conditions: template/primer (rA)n.(dT)10, read-out: Percent inhibition
T2 construct: Reverse transcriptase from various retroviruses have been tested in cell-free assays
Protocol: as §2, §3

[5] = tested on: reverse transcriptase from AMV; experiment: Cell-free reverse transcriptase inhibition, AMV; assay type: biochemical, avian myeloblastosis virus
Protocol: as §2, §3

[6] = tested on: YBA solid tumors (Moloney virus); experiment: Survival of CBA mice bearing YBA solid tumors; assay type: in vivo; conditions: 0.5% in the drinking water, pH 7.2; FIG. 3
Protocol: The inhibition of reverse transcriptase by phosphonoformic acid (PFA) has prompted an investigation of the effect of PFA on animals with tumors where retroviruses are implicated. Ehrlich ascites tumors (Friend virus) in NMRI mice and YBA solid tumors (Moloney virus) in CBA mice have been used.
NMRI mice were inoculated intraperitoneally with 0.1 ml of a 1/10 dilution of ascitic fluid from a mouse with an Ehrlich ascites tumor. Nine mice were given intraperitoneally 100 mg/kg of PFA per day as a 2% solution at pH 7.2, and 9 mice were treated with 0.95% NaCl ip. CBA mice were inoculated with 7×10^6 cells subcutaneously in the flank. Fifteen CBA mice were given 0.5% PFA at pH 7.2 in the drinking water and fifteen water without addition.

[7] = Toxicity controls with substance in uninfected mice; assay type: in vivo
Excerpt: Toxicity controls with substance were given to uninfected animals.

HTLV-III = HTLV-III replication in H9 cells; assay type: cell-based; conditions: Human immunodeficiency virus 1, 144 h
Protocol: H9 cells constitute a human cell line that can be chronically infected with HTLV-III virus. (Science 1984; 224: 497-500). H9 cells were treated with polybrene (2 μg/ml) for 30 min. at 37° C., washed free of polybrene and infected with 2×10^8 HTLV-III virus particles per 4×10^5 H9 cells. […] The cultures were analyzed for HTLV-III reverse transcriptase activity as described above.

Sequence of type A influenza virion-associated RNA polymerase (Influenza A virus (A/nt/60/1968(H3N2)), UniProt P03432) (P03432 whole entry, looked up): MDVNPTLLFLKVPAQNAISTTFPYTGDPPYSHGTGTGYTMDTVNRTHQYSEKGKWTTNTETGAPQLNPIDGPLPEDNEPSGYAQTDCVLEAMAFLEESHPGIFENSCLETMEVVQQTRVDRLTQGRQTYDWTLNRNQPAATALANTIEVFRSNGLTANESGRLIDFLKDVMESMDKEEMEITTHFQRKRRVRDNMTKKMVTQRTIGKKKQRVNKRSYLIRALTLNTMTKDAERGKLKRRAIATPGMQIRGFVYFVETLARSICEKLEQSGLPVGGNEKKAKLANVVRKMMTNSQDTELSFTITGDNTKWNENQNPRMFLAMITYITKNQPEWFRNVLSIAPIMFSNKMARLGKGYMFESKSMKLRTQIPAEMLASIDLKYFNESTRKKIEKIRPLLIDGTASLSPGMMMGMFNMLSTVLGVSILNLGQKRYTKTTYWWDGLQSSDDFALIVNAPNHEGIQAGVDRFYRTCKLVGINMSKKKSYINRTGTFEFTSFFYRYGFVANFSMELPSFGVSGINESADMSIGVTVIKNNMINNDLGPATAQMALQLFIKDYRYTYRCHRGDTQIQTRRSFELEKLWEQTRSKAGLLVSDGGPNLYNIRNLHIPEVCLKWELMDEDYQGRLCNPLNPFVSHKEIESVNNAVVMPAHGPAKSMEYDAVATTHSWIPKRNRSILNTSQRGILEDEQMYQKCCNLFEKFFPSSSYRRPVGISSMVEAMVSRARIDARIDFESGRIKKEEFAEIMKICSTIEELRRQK
T2 sequence (P10272 659-1335): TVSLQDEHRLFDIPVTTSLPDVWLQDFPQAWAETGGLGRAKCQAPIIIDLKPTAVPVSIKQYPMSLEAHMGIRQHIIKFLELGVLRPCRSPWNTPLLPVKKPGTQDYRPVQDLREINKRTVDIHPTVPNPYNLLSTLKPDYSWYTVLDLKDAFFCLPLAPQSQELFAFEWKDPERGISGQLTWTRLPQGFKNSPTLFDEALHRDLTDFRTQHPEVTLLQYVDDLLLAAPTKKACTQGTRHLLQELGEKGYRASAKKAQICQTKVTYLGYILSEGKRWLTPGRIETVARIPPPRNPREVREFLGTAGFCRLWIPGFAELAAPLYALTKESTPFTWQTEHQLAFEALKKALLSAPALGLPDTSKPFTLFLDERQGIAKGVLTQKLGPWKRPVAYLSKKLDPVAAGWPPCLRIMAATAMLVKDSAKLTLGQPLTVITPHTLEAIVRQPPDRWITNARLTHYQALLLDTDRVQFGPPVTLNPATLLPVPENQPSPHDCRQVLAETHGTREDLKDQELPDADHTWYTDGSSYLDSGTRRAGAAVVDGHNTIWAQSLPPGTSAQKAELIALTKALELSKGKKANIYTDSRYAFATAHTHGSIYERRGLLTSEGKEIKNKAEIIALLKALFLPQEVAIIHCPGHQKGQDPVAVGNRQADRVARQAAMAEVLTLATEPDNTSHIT
T1 sequence (P03370 541-1111): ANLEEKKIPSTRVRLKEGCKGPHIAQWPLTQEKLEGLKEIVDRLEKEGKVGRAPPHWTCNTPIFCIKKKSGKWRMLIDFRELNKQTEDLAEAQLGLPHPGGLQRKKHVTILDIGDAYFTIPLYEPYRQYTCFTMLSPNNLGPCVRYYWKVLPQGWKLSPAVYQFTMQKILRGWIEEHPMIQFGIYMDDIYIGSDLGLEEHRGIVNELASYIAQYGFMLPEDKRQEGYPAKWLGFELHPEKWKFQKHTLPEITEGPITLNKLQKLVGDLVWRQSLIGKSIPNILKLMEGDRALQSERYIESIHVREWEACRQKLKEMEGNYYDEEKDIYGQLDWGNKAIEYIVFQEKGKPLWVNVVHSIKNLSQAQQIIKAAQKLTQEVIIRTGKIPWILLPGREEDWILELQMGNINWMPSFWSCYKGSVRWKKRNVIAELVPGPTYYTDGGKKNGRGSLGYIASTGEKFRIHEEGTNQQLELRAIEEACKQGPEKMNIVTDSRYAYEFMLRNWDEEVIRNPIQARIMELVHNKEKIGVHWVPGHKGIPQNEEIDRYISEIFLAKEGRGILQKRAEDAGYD

## O=C(O)P(=O)(O)O [phosphonoformic acid]
[1]; 0.1 μM
  inhibition at 0.1 µM: 21%
[1]; 0.50 μM
  inhibition at 0.5 µM: > 50%
[1]; 1.00 μM
  inhibition at 1 µM: 79%
[1]; 10 μM
  inhibition at 10 µM: 91%
[1]; 100 μM
  inhibition at 100 µM: 95%
[1]; 500 μM
  inhibition at 500 µM: 93%
[2]
  inhibition at 500 µM: 0%
[3]; 100 μM
  inhibition at 100 µM: 95%
[3]; 500 μM
  inhibition at 500 µM: 99%
[4]; 10 μM
  inhibition at 10 µM: 96%
[4]; 100 μM
  inhibition at 100 µM: > 99%
[4]; 500 μM
  inhibition at 500 µM: > 99%
[5]; 10 μM, endogenous template
  Percent inhibition: 15%
[5]; 10 μM, purified enzyme, (rA)n.(dT)10
  Percent inhibition: 45%
[5]; 10 μM, template/primer (rA)n.(dT)10
  Percent inhibition: 43%
[5]; 100 μM, endogenous template
  Percent inhibition: 49%
[5]; 100 μM, purified enzyme, (rA)n.(dT)10
  Percent inhibition: 96%
[5]; 100 μM, template/primer (rA)n.(dT)10
  Percent inhibition: 94%
[5]; 500 μM, endogenous template
  Percent inhibition: 70%
[5]; 500 μM, purified enzyme, (rA)n.(dT)10
  Percent inhibition: > 99%
[5]; 500 μM, template/primer (rA)n.(dT)10
  Percent inhibition: 99%
[6]
  survival of mice inoculated with YBA cells: increased survival
[7]; 0.5% in the drinking water, 10 mice
  deaths in substance control group: No mice died
[7]; uninfected mice, 100 mg/kg/day, 10 animals
  deaths in toxicity control group: No mice died
HTLV-III; 300 μM, after six days of incubation
  inhibition at 300 µM: > 95%
HTLV-III; after 6 days of incubation, read-out: concentration giving 50% inhibition of HTLV-III replication
  IC50: 50 µM
